Source: PubChem BioAssay (NCI)
Several values for one entry are separate records, joined by “and”; a condition that tells them apart may be missing. Equal values may be shown once.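 Each compound was tested at five concentrations against cells in 96-well plates for 48 hours. GI50: concentration for 50% inhibition of growth. TGI denotes the concentration required for complete inhibition of growth.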

Columns and labels:
Assay in all cases: growth of human tumour cells (NCI), 48 h
HS 578T breast = test system: HS 578T breast
CAKI-1 renal = test system: CAKI-1 renal
SNB-75 CNS = test system: SNB-75 CNS
OVCAR-5 ovarian = test system: OVCAR-5 ovarian
ACHN renal = test system: ACHN renal
SK-MEL-2 melanoma = test system: SK-MEL-2 melanoma
NCI-H460 lung = test system: NCI-H460 lung
HCT-116 colon = test system: HCT-116 colon
RPMI-8226 leukemia = test system: RPMI-8226 leukemia
HOP-92 NSCLC = test system: HOP-92 NSCLC

Row | Structure (SMILES) | TGI (HS 578T breast) [µM] | TGI (CAKI-1 renal) [µM] | TGI (SNB-75 CNS) | TGI (OVCAR-5 ovarian) [µM] | TGI (ACHN renal) [µM] | TGI (SK-MEL-2 melanoma) | TGI (NCI-H460 lung) | TGI (HCT-116 colon) [µM] | TGI (RPMI-8226 leukemia) | TGI (HOP-92 NSCLC) | GI50 (HS 578T breast) [µM] | GI50 (CAKI-1 renal) [nM] | GI50 (SNB-75 CNS) [nM] | GI50 (OVCAR-5 ovarian) [nM] | GI50 (ACHN renal) [nM] | GI50 (SK-MEL-2 melanoma) [nM] | GI50 (NCI-H460 lung) | GI50 (HCT-116 colon) | GI50 (RPMI-8226 leukemia) | GI50 (HOP-92 NSCLC) [nM]
1 | C=C(CC)C(=O)c1ccc(OCC(=O)O)c(Cl)c1Cl | 45.9 | 28.1 | 50 µM | > 62.6 | > 72.9 | 33.2 µM | > 69.9 µM | > 55.1 | > 100 µM | 25.2 µM | – | – | – | – | – | – | – | – | – | –
2 | O=C(O)C1CC[N-]CC1.O=C(O)C1CC[N-]CC1.[NH2-].[NH2-].[Pt+4] | > 100 | > 100 | > 100 µM | > 100 | > 100 | > 100 µM | > 100 µM | > 100 | > 100 µM | > 100 µM | > 100 | > 100000 | > 100000 | > 100000 | > 100000 | > 100000 | > 100000 nM | > 100000 nM | > 100000 nM | > 100000
3 | CN(C)Cc1ccc(O)c(CN(C)C)n1 | > 100 | > 100 | > 100 µM | > 100 | > 100 | > 100 µM | > 100 µM | > 100 | > 100 µM | > 100 µM | – | – | – | – | – | – | – | – | – | –
4 | O=C(O)c1cc(-c2ccc(-c3ccccc3)cc2)nc2cc3ccccc3cc12 | > 100 | > 100 | 69.9 µM | > 100 | > 100 | > 100 µM | > 100 µM | > 100 | > 100 µM | 82.2 µM | – | – | – | – | – | – | – | – | – | –
5 | Cc1cc2c3c(nc4ccccc42)C(=O)c2cccnc2-c3n1 | > 21.9 | 2.67 | 3.09 µM | 2.33 | 1.45 | 3.82 µM | 1.06 µM | 0.11 | 0.46 µM | 8.52 µM | 1.69 | 404 | 833 | 1090 | 32.7 | 1480 | 162 nM | < 41.6 nM | 99 nM | 941
6 | O=C(Nc1nc2ccc(OC(F)(F)F)cc2s1)c1ccc(F)cc1 | > 100 | 7.26 | 53.9 µM | 27.6 | 6.18 | 7.39 µM | 20.7 µM | 10.1 | 8.08 µM | 8.35 µM | 3.12 | 2290 | 3450 | 3620 | 2400 | 3080 | 3020 nM | 2980 nM | 2520 nM | 3910
7 | CC[C@@]1(O)C(=O)OCc2c1cc1n(c2=O)Cc2cc3cc(O)ccc3nc2-1 | 8.52 | – | 0.206 µM and 0.107 µM | – | 0.457 | 2.15 µM and 1.2 µM | 0.112 µM and 1.07 µM | 13.7 | 6.03 µM and 4.87 µM | 0.107 µM and 0.513 µM | – | 42 | – | 122 | – | 174 | 17.2 nM and < 10.4 nM | 22.8 nM and 17.6 nM | 139 nM and 277 nM | 23.9
8 | CC[C@]1(O)CC2CN(CCc3c([nH]c4ccccc34)C(C(=O)OC)(c3cc4c(cc3OC)N(C=O)[C@H]3[C@@](O)(C(=O)OC)[C@H](OC(C)=O)[C@]5(CC)[C@@H]6C[C@@H]6CN6CC[C@]43[C@@H]65)C2)C1 (stereo not given in full) | > 32.5 | 12.2 | 13.4 µM | > 32.5 | > 23.5 | 3.67 µM | > 11.2 µM | 0.00352 | 0.0579 µM | 0.0121 µM | < 0.00325 | 32.4 | < 3.25 | < 3.25 | 13.9 | < 3.25 | < 3.25 nM | < 3.25 nM | < 3.25 nM | < 3.25
9 | CCOC(=O)C(Cc1ccccc1)n1c(O)c(/C=N/c2ncc(Cc3ccc(Cl)cc3Cl)s2)sc1=S (stereo not given) | 41.1 | > 100 | 21.4 µM | > 100 | > 100 | 5.68 µM | 12.4 µM | 11.5 | > 100 µM | 6.22 µM | 3.62 | 1710 | 2810 | 4200 | 2920 | 1310 | 2090 nM | 2030 nM | 2120 nM | 1650
